Experiment [1] concerns the target RAC-alpha serine/threonine-protein kinase (Homo sapiens) (UniProt P31749). Briefly: Covalent-allosteric inhibition of full length N-terminal his6-tagged AKT (2 to 446 residues) (unknown origin) expressed in Spodoptera frugiperda Sf9 cells assessed as kinact.
Experiment [2] shares this target. Kind of experiment: Covalent-allosteric inhibition of full length N-terminal his6-tagged AKT (2 to 446 residues) (unknown origin) expressed in Spodoptera frugiperda Sf9 cells assessed as kinact/ki ratio.
The subject of a further experiment is KU-19-19. Kind of experiment: Antiproliferative activity against human KU-19-19 cells assessed as reduction in cell viability incubated for 5 days by celltiter-glo assay. To be noted: KU-19-19, 120 h. In kind it is functional, cell-based.
Experiment [3] deals with RAC-alpha serine/threonine-protein kinase (Homo sapiens) (UniProt P31749). Briefly: Covalent-allosteric inhibition of full length N-terminal his6-tagged AKT (2 to 446 residues) (unknown origin) expressed in Spodoptera frugiperda Sf9 cells at 100 uM incubated for 1 hr by Mass spectrometry analysis.
The subject of a further experiment is AN3-CA. Kind of experiment: Antiproliferative activity against human AN3-CA cells assessed as reduction in cell viability incubated for 5 days by celltiter-glo assay. In kind it is functional, cell-based. To be noted: 120 h.
The next experiment has as its system MCF7. Briefly: Antiproliferative activity against human MCF7 cells assessed as reduction in cell viability incubated for 5 days by celltiter-glo assay. Particulars: MCF7, 120 h. In kind it is functional, cell-based. Background: In ATP-based viability assays light output follows the ATP content of the culture.
A further experiment concerns BT-474. Kind of experiment: Antiproliferative activity against human BT-474 cells assessed as reduction in cell viability incubated for 5 days by celltiter-glo assay. In kind it is functional, cell-based. Particulars: BT-474, 120 h.

Active and inactive are the calls of the source. No cut-off for these calls is given here.

As a reminder, the EC50 is the concentration needed to bring the measured effect to its halfway point.

Sequence of RAC-alpha serine/threonine-protein kinase (Homo sapiens) (P31749 whole entry, the tested form may be a part): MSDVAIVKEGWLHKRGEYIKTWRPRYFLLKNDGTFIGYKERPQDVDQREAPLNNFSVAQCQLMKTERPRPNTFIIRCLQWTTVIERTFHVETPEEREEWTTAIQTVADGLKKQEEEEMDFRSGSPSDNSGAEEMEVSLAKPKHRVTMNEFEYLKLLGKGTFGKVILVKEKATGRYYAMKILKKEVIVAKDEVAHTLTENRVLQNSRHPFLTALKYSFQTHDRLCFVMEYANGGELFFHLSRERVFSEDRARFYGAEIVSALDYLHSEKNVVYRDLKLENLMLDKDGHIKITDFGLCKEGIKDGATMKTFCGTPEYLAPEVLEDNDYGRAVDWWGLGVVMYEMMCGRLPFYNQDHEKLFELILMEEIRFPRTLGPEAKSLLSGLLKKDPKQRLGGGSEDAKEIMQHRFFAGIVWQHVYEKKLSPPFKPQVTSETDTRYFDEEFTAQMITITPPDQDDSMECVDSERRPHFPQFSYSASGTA

As to `C=CC(=O)Nc1ccc(C(=O)NC2CCN(Cc3ccc(-c4nc5cc[nH]c(=O)c5cc4-c4ccccc4)cc3)CC2)c(F)c1`, the Kinact in experiment [1] amounted to 0.085 min⁻¹. In addition, the Ratio in experiment [2] was found to be 0.014 µM⁻¹ s⁻¹.

Consider `C=CC(=O)Nc1ccccc1C(=O)NC1CCN(Cc2ccc(-c3nc4cc[nH]c(=O)c4cc3-c3ccccc3)cc2)CC1`, for which the Kinact in experiment [1] is 0.138 min⁻¹. Besides, the Ratio in experiment [2] stood at 0.085 µM⁻¹ s⁻¹.

For the compound `NC1(C(=O)N[C@@H](CCO)c2ccc(Cl)cc2)CCN(c2nc[nH]c3nccc2-3)CC1` [CAPIVASERTIB], the EC50 in the experiment on KU-19-19 turned out to be 20.9 µM.

Consider `C=CC(=O)Nc1ccc2[nH]c(=O)n(C3CCN(Cc4ccc(-c5nc6cc[nH]c(=O)c6cc5-c5ccccc5)cc4)CC3)c2c1`, for which the inhibition entry in experiment [3] was “Active”.

Regarding `C=CC(=O)Nc1ccc2c(c1)n(C1CCN(Cc3ccc(-c4nc5cc[nH]c(=O)c5cc4-c4ccccc4)cc3)CC1)c(=O)n2C`, the Kinact in experiment [1] is 0.121 min⁻¹. In addition, the Ratio in experiment [2] was 0.19 µM⁻¹ s⁻¹. In addition, the inhibition result in experiment [3] was “Active”.

With `C=CC(=O)Nc1cccc(CNC2CCN(Cc3ccc(-c4nc5cc[nH]c(=O)c5cc4-c4ccccc4)cc3)CC2)c1`, the Kinact in experiment [1] stood at 0.071 min⁻¹. For the same compound, in experiment [2], the Ratio stood at 0.004 µM⁻¹ s⁻¹.

For `CC(C)NC[C@@H](C(=O)N1CCN(c2ncnc3c2[C@H](C)C[C@H]3O)CC1)c1ccc(Cl)cc1` [IPATASERTIB], the EC50 in the experiment on KU-19-19 stood at 24 µM.

With `C=CC(=O)Nc1ccc(C(=O)NC2CCN(Cc3ccc(-c4nc5cc[nH]c(=O)c5cc4-c4ccccc4)cc3)CC2)s1`, the Kinact in experiment [1] stood at 0.088 min⁻¹. In addition, in experiment [2], the Ratio came out at 0.038 µM⁻¹ s⁻¹.

`C=CC(=O)Nc1ccc(C(=O)NC2CCN(Cc3ccc(-c4nc5cc[nH]c(=O)c5cc4-c4ccccc4)cc3)CC2)cc1`: in experiment [1], the Kinact is 0.042 min⁻¹. For the same compound, the Ratio in experiment [2] is 0.002 µM⁻¹ s⁻¹. Moreover, in the experiment on KU-19-19, the EC50 worked out at 11.3 µM.

`CN(C)C/C=C/C(=O)Nc1ccc2[nH]c(=O)n(C3CCN(Cc4ccc(-c5nc6cc[nH]c(=O)c6cc5-c5ccccc5)cc4)CC3)c2c1`: the Kinact in experiment [1] is 0.05 min⁻¹. In experiment [2], the Ratio was determined as 0.025 µM⁻¹ s⁻¹. Moreover, the concentration for a half-maximal effect (EC50) in the experiment with AN3-CA stood at 15.3 µM; in the experiment with MCF7 it was 20.3 µM; with BT-474, 12 µM.

As for `C=CC(=O)Nc1cc(Br)cc(C(=O)NC2CCN(Cc3ccc(-c4nc5cc[nH]c(=O)c5cc4-c4ccccc4)cc3)CC2)c1`, the Kinact in experiment [1] worked out at 0.078 min⁻¹. Also, the Ratio in experiment [2] came to 0.168 µM⁻¹ s⁻¹.

On to `C=CC(=O)Nc1cccc(C(=O)NC2CCN(Cc3ccc(-c4nc5cc[nH]c(=O)c5cc4-c4ccccc4)cc3)CC2)c1`, for which the concentration giving a half-maximal response (EC50) with KU-19-19 was determined as 14.9 µM.

The values are drawn from ChEMBL document CHEMBL5705908, “Structural and chemical insights into the covalent-allosteric inhibition of the protein kinase Akt” (Chem Sci, 2019).
